Like-named read-outs stand apart in the source and are kept apart here.
Key:
[1] = test system: Cooperia curticei; assay: Cooperia curticei test (COOPCU), larval mortality; type: in vivo; conditions: for mortality at 20 ppm: Cooperia curticei, 120 h, read-out: activity (larval mortality); for activity (larval mortality): application rate 4 ppm, after 5 days
Description: Cooneria curtice—Test (COOPCU) Solvent: dimethyl sulfoxide
(§1) To produce a suitable preparation of active compound, 10 mg of active compound are dissolved in 0.5 ml solvent, and the concentrate is diluted with “Ringer's solution” to the desired concentration.
Approximately 40 nematode larvae (Cooperia curticei) are transferred into a test tube containing the compound solution.
After 5 days percentage of larval mortality is recorded. 100% efficacy means all larvae are killed; 0% efficacy means no larvae are killed.

[2] = test system: Haemonchus contortus; assay: Haemonchus contortus test (HAEMCO), larval mortality; type: in vivo; conditions: 120 h, read-out: activity (larval mortality)
Description: Haemonchus contortus—Test (HAEMCO) Solvent: dimethyl sulfoxide
as §1
Approximately 40 larvae of the red stomach worm (Haemonchus contortus) are transferred into a test tube containing compound solution.
After 5 days percentage of larval mortality are recorded. 100% efficacy means all larvae are killed, 0% efficacy means no larvae are killed.

[3] = test system: Meloidogyne incognita; assay: Meloidogyne incognita test (MELGIN), gall formation on salad seedlings; type: in vivo; conditions: application rate 20 ppm, after 14 days
Summary of the method: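 Sand vessels treated with acetone-formulated compound diluted in water, then inoculated with M. incognita eggs and larvae and sown with salad seeds. Root galling assessed after 14 days: 100% = no galls, 0% = galling equal to untreated plants.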

[4] = Measurement of log P values by HPLC on reversed phase columns (methods [a] pH 2.3, [b] pH 2.7, [c] pH 7.8); type: physicochemical; conditions: for chromatographic logP: reversed phase HPLC columns, read-out: logP
Summary of the method: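 Determined per EEC Directive 79/831 Annex V.A8 by reversed-phase HPLC, 10-95% acetonitrile gradient: [a] pH 2.3, 0.1% phosphoric acid; [b] LC-MS, pH 2.7, 0.1% formic acid; [c] LC-MS, pH 7.8, 0.001 molar ammonium hydrogen carbonate. Calibrated with C3-C16 alkan-2-ones by retention-time interpolation.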

[5] = test system: Boophilus microplus; assay: Boophilus microplus injection test (BOOPMI Inj); type: in vivo; conditions: application rate 20 μg/animal, injection into abdomen of adult engorged female ticks, after 7 days
Description: Boonhilus micronlus—Injectiontest (BOOPMI Inj)
Solvent: dimethyl sulfoxide
To produce a suitable preparation of active compound, 10 mg of active compound are dissolved in 0.5 ml solvent, and the concentrate is diluted with solvent to the desired concentration.
Five adult engorged female ticks (Boophilus microplus) are injected with 1 μl compound solution into the abdomen. Ticks are transferred into replica plates and incubated in a climate chamber.
After 7 days the egg deposition of fertile eggs is monitored. Eggs where fertility is not visible are stored in a climate chamber till hatching after about 42 days. An efficacy of 100% means that all eggs are infertile; 0% means that all eggs are fertile.

[6] = pH 2.7, HPLC reversed phase, method [b] (pH 2.7)
[7] = HPLC on reversed phase columns, method [b], pH 2.7
[8] = HPLC reversed phase, method [b] (pH 2.7)
[9] = method [b], HPLC reversed phase, pH 2.7
[10] = method [c], HPLC reversed phase, pH 7.8
[11] = HPLC on reversed phase column, method [b], pH 2.7
[12] = HPLC on reversed phase column, method [c], pH 7.8

SMILES	nematicidal activity (percentage of gall formation; 100% = no galls) [3]	logP [4, 8]	also measured
O=C(N[C@@H]1CC[C@@H]1c1c(F)cccc1F)c1ccccc1C(F)(F)F [Compound 513]	100%		mortality at 20 ppm [1]: 80%; mortality at 20 ppm [2]: 90%; chromatographic logP [4, 6]: 3.15
Cc1nn(C)c(F)c1C(=O)N[C@@H]1C[C@H]1c1ccccc1Cl (relative stereo) [Compound 49]			activity (efficacy: infertile eggs) [5]: 80%; logP [4, 7]: 2.40^[b]
O=C(NC1CCC1c1ccc(Cl)cc1Cl)c1ccccc1 (stereo not shown) [Compound 451]		3.30^[b]	activity (larval mortality) [1]: 90%
O=C(N[C@@H]1CC[C@@H]1c1ccc(Cl)cc1Cl)c1ccccc1I [Compound 456]	100%		mortality at 20 ppm [1]: 100%; mortality at 20 ppm [2]: 100%; chromatographic logP [4, 6]: 3.75
O=C(N[C@@H]1C[C@@H]1c1ccc(Cl)cc1Cl)c1ccccc1Br (relative stereo) [Compound 579]		3.32^[b]	activity (larval mortality) [1]: 80%
O=C(NC1CC1c1ccc(Cl)cc1Cl)c1sccc1I (stereo not shown) [Compound 212]	100%		logP [4, 9]: 4.10^[b]; logP [4, 10]: 4.04^[c];
O=C(N[C@@H]1C[C@@H]1c1ccc(Cl)cc1Cl)c1ccccc1[N+](=O)[O-] (relative stereo) [Compound 558]	100%	2.94^[b]	
O=C(N[C@@H]1C[C@@H]1c1ccc(Cl)cc1Cl)c1ncccc1Cl (relative stereo) [Compound 649]	100%		logP [4, 11]: 2.93^[b]; logP [4, 12]: 2.91^[c];
O=C(NC1CC1c1ccc(Cl)cc1Cl)c1occc1Br (stereo not shown) [Compound 214]	100%		logP [4, 9]: 3.56^[b]; logP [4, 10]: 3.44^[c];
O=C(N[C@@H]1CC[C@@H]1c1cccc(F)c1C(F)(F)F)c1cccnc1C(F)(F)F (relative stereo) [Compound 641]	100%		logP [4, 11]: 2.97^[b]
O=C(N[C@@H]1CC[C@@H]1c1cc(F)ccc1C(F)(F)F)c1nccnc1Cl (relative stereo) [Compound 559]	100%	2.88^[b]	
O=C(N[C@@H]1CC[C@@H]1c1cccc(F)c1C(F)(F)F)c1ccc(Cl)cc1 (relative stereo) [Compound 595]	100%		logP [4, 11]: 3.47^[b]
Cn1cc(C(=O)N[C@@H]2CC[C@@H]2c2c(F)cccc2C(F)(F)F)c(C(F)F)n1 (relative stereo) [Compound 574]	100%	2.91^[b]	
O=C(N[C@@H]1CC[C@@H]1c1cc(F)ccc1C(F)(F)F)c1ccccc1Cl (relative stereo) [Compound 528]	100%	3.34^[b]	
O=C(N[C@@H]1CC[C@@H]1c1ccccc1Cl)c1ccccc1[N+](=O)[O-] (relative stereo) [Compound 538]	100%	2.71^[b]	
O=C(N[C@@H]1CC[C@@H]1c1c(F)cccc1C(F)(F)F)c1nccnc1Cl (relative stereo) [Compound 576]	100%	3.02^[b]	
O=C(N[C@@H]1CC[C@@H]1c1cccc(F)c1C(F)(F)F)c1ccccc1C(F)(F)F (relative stereo) [Compound 589]	100%	3.38^[b]	
O=C(NC1CC1c1ccc(Cl)cc1Cl)c1ccccc1C(F)(F)F (stereo not shown) [Compound 424]	100%	3.46^[b]	

SMILES	nematicidal activity (percentage of gall formation; 100% = no galls) [3]	logP [4, 8]	also measured
O=C(N[C@@H]1CC[C@@H]1c1ccccc1Cl)c1ccccc1C(F)(F)F (relative stereo) [Compound 251]	100%	3.23^[b]	
O=C(NC1CCC1c1c(F)cccc1F)c1ccccc1I (stereo not shown) [Compound 440]	90%	3.13^[b]	
O=C(N[C@@H]1C[C@@H]1c1ccc(Cl)cc1Cl)c1ncccc1Br (relative stereo) [Compound 608]	100%		logP [4, 11]: 2.98^[b]; logP [4, 12]: 2.99^[c];
O=C(N[C@@H]1C[C@@H]1c1ccc(Cl)cc1Cl)c1nccnc1Cl (relative stereo) [Compound 567]	90%	2.75^[b]	
O=C(N[C@@H]1CC[C@@H]1c1cc(F)ccc1C(F)(F)F)c1ccccc1C(F)(F)F (relative stereo) [Compound 586]	100%	3.53^[b]	
O=C(N[C@@H]1CC[C@@H]1c1cc(F)ccc1C(F)(F)F)c1ccccc1 (relative stereo) [Compound 550]	100%	3.15^[b]	
O=C(N[C@@H]1CC[C@@H]1c1c(F)cccc1C(F)(F)F)c1ccccc1Cl (relative stereo) [Compound 553]	100%	3.42^[b]	
O=C(N[C@@H]1CC[C@@H]1c1cccc(F)c1C(F)(F)F)c1ccccc1Cl (relative stereo) [Compound 601]	100%		logP [4, 11]: 3.23^[b]
O=C(N[C@@H]1CC[C@@H]1c1cc(F)ccc1C(F)(F)F)c1c(F)cccc1F (relative stereo) [Compound 549]	100%	3.22^[b]	
O=C(N[C@@H]1CC[C@@H]1c1ccccc1C(F)(F)F)c1cccnc1Cl [Compound 621]	100%		mortality at 20 ppm [1]: 100%; mortality at 20 ppm [2]: 90%; chromatographic logP ([4]; pH 2.7, HPLC on reversed phase column, method [b], pH 2.7): 2.64
O=C(NC1CC1c1ccc(Cl)cc1Cl)c1cccnc1Cl (stereo not shown) [Compound 425]	100%	2.62^[b]	
O=C(NC1CCCC1c1ccc(Cl)cc1Cl)c1cccnc1C(F)(F)F (stereo not shown) [Compound 358]	100%	3.54^[b]	
O=C(N[C@@H]1CC[C@@H]1c1cccc(F)c1C(F)(F)F)c1nccnc1Cl (relative stereo) [Compound 645]	100%		logP [4, 11]: 2.78^[b]
CCCOc1ccccc1C(=O)N[C@@H]1CCC[C@@H]1c1ccc(F)c(F)c1 (relative stereo) [Compound 86]	90%		logP [4, 7]: 4.19^[b]
O=C(N[C@@H]1CC[C@@H]1c1c(F)cccc1C(F)(F)F)c1ccccc1C(F)(F)F (relative stereo) [Compound 585]	100%	3.60^[b]	
O=C(N[C@@H]1CC[C@H]1c1ccc(F)cc1C(F)(F)F)c1ccccc1C(F)(F)F (relative stereo) [Compound 494]	90%	3.72^[b]	
O=C(NC1CCC1c1ccc(F)cc1C(F)(F)F)c1ncccc1Cl (stereo not shown) [Compound 479]	100%	3.11^[b]	
O=C(N[C@@H]1CC[C@@H]1c1ccc(F)cc1C(F)(F)F)c1ccccc1Br (relative stereo) [Compound 491]	100%	3.39^[b]	
